Source: ChEMBL document CHEMBL5233249, “Recent advancements in the development of heterocyclic anti-inflammatory agents” (Eur J Med Chem, 2020)
Converted amounts (≈) assume the structure as drawn.

Assays:
[1] = system: RAW264.7; experiment: Anti-inflammatory activity in mouse RAW264.7 cells assessed as inhibition of LPS-induced NO production measured after 24 hrs; format: functional, cell-based; conditions: RAW264.7, 24 h
[2] = system: RAW264.7; experiment: Anti-inflammatory activity in mouse RAW264.7 cells assessed as inhibition of LPS-induced NO production in macrophages; format: functional, cell-based
[3] = system: Rattus norvegicus; experiment: Anti-inflammatory activity against Carrageenan-induced paw edema in PO dosed Wistar albino rat assessed as inhibition of edema measured after 3 hr relative to control; format: functional; set-up: scale not given: the % may be the effect or the level left
[4] = system: Rattus norvegicus; experiment: Anti-inflammatory activity in Wistar rat assessed as reduced hind paw edema at 25 mg/kg relative to control; format: functional; set-up: scale not given: the % may be the effect or the level left
[5] = target: T1, Polyunsaturated fatty acid 5-lipoxygenase (Homo sapiens, UniProt P09917); experiment: Inhibition of 5-LOX (unknown origin) after 5 mins by colorimetric method
T1 sequence (P09917 whole entry): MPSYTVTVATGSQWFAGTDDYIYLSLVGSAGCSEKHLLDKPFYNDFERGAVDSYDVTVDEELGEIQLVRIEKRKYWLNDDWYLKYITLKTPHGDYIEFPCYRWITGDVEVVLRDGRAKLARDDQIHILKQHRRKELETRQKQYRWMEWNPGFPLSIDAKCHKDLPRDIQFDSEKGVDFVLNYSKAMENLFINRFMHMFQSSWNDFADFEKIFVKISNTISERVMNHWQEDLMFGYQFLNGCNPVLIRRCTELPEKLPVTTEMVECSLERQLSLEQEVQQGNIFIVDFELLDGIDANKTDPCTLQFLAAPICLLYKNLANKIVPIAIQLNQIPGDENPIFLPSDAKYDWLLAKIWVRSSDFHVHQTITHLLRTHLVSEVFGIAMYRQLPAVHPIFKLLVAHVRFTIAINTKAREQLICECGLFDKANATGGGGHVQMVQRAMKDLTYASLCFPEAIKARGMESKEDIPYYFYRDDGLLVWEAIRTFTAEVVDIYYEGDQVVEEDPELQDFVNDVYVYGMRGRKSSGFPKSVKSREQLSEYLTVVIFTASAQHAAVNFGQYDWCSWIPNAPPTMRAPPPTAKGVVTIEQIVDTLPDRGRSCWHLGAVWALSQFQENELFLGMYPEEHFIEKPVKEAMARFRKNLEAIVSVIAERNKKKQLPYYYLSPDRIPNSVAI

[6] = system: Rattus norvegicus; experiment: Anti-inflammatory activity in Carageenan-induced foot paw edema in Swiss albino rat assessed as reduction in volume of paw edema measured after 4 hr relative to control; format: functional; set-up: scale not given: the % may be the effect or the level left
[7] = system: Rattus norvegicus; experiment: Anti-inflammatory activity in Carageenan-induced foot paw edema in Swiss albino rat assessed as reduction in volume of paw edema measured after 6 hr relative to control; format: functional; set-up: scale not given: the % may be the effect or the level left
[8] = system: Rattus norvegicus; experiment: Anti-inflammatory activity in Carageenan-induced foot paw edema in Swiss albino rat assessed as reduction in volume of paw edema measured after 2 hr relative to control; format: functional; set-up: scale not given: the % may be the effect or the level left
[9] = system: Rattus norvegicus; experiment: Anti-inflammatory activity in Carageenan-induced foot paw edema in Swiss albino rat assessed as reduction in volume of paw edema measured after 1 hr relative to control; format: functional; set-up: scale not given: the % may be the effect or the level left
[10] = Antioxidant activity assessed as DPPH radical scavenging activity incubated for 20 mins by spectrophotometric analysis; format: functional
[11] = system: Mus musculus; experiment: Anti-inflammatory activity in Carrageenan-induced paw edema mouse model assessed as inhibition of granuloma measured after 24 hrs relative to control; format: functional
[12] = system: Rattus norvegicus; experiment: Anti-inflammatory activity against formalin-induced foot paw edema in Wistar rat at 5 mg/kg, po assessed as inhibition of edema measured after 4 hr relative to control; format: functional
[13] = system: Rattus norvegicus; experiment: Anti-ulcerative activity in Carrageenan-induced Sprague-Dawley rat ulcer model assessed as inhibition of ulcer index at 10 mg/kg,po; format: functional
[14] = system: Rattus norvegicus; experiment: Anti-inflammatory activity against carrageenan-induced Albino Wistar rat paw edema model assessed as inhibition of rat paw edema at 50 mg/kg, po after 3 hrs relative to control; format: functional; set-up: scale not given: the % may be the effect or the level left
[15] = Selectivity index, ratio of IC50 for ovine COX1 to IC50 for recombinant human COX2
[16] = system: Rattus norvegicus; experiment: Anti-inflammatory activity against formalin-induced foot paw edema in PO dosed rat at 10 mg/kg assessed as inhibition of edema measured after 5 hr relative to control; format: functional; set-up: scale not given: the % may be the effect or the level left
[17] = system: Rattus norvegicus; experiment: Anti-ulcerative activity in aspirin induced Wistar rat ulcer model assessed as inhibition of ulcer index at 20 mg/kg,po; format: functional
[18] = system: Erythrocyte; experiment: Anti-inflammatory activity in rat red blood cells assessed as stabilization of cell membrane at 200 microg/ml relative to control; format: functional; conditions: dose 200 µg/ml
[19] = system: Erythrocyte; experiment: Anti-inflammatory activity in rat red blood cells assessed as stabilization of cell membrane at 500 microg/ml relative to control; format: functional; conditions: dose 500 µg/ml
[20] = Anti-inflammatory activity assessed using bovine serum albumin/egg albumin proteins assessed as protein denaturation measured at 95 degC for 20 mins by measuring turbidity by UV-Vis spectrophotometer; format: functional
[21] = system: Rattus norvegicus; experiment: Anti-inflammatory activity against formalin-induced foot paw edema in PO dosed rat at 10 mg/kg assessed as inhibition of edema measured after 4 hr relative to control; format: functional
[22] = target: T2, Prostaglandin G/H synthase 1 (Ovis aries, UniProt P05979); experiment: Inhibition of ovine COX-1 by EIA method
T2 sequence (P05979 whole entry): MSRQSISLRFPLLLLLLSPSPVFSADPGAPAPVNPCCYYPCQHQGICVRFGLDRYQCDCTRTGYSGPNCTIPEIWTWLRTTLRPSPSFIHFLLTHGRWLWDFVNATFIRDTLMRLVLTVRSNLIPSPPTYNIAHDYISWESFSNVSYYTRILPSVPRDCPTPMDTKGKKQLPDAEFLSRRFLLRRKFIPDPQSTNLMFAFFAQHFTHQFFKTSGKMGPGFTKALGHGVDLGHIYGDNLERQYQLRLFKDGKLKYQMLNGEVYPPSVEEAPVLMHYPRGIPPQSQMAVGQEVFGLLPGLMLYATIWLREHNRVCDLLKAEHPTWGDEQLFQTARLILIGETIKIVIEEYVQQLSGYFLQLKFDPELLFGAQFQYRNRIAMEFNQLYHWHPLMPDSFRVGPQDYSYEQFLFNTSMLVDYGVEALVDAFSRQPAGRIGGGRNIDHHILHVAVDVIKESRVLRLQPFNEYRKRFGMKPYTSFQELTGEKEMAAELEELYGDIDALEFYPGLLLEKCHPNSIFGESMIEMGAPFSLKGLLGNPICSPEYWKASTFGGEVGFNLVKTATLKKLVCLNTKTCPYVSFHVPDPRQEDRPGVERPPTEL

[23] = system: Mus musculus; experiment: Anti-inflammatory activity against Carrageenan-induced paw edema in mouse model assessed as inhibition of edema at 100 mg/kg measured after 3 hrs relative to control; format: functional; set-up: scale not given: the % may be the effect or the level left
[24] = target: T3, Prostaglandin G/H synthase 2 (Homo sapiens) (UniProt P35354); experiment: Inhibition of COX-2 (unknown origin) assessed as inhibition at 100 mg/kg relative to control; format: organism-based
T3 sequence (whole entry): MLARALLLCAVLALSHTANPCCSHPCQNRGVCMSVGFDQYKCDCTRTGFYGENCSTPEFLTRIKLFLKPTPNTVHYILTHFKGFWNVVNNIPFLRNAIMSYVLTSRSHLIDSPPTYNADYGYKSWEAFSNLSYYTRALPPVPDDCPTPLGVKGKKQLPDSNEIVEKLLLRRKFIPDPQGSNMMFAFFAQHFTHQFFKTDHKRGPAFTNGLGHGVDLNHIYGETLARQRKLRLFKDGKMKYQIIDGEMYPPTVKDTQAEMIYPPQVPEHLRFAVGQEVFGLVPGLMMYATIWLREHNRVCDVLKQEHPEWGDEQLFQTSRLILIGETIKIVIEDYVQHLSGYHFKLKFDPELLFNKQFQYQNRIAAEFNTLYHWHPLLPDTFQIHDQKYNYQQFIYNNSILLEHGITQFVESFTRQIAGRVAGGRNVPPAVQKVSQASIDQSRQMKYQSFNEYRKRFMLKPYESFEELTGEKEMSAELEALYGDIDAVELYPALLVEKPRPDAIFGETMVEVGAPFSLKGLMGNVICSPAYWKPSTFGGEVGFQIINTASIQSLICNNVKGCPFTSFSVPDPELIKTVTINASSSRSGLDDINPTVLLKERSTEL

C[C@]12CC[C@H]3[C@@H](CC=C4C[C@@H](O)CC[C@@]43C)[C@@H]1CC[C@@H]2C1=NN(C(N)=S)C(c2cccc(F)c2)C1 (some centres not stated)
IC50 [1]: 860 nM

C=CC1=CN=CC2C(=O)N3CCc4c([nH]c5ccccc45)C3=CC12 (configuration not stated)
IC50 [2]: 1280 nM

N#CC(C#N)/N=N/c1ccc2c(c1)CCC2
Activity [3]: 64.83%

NS(=O)(=O)c1ccc(-n2nc(C(=O)NNC(=O)c3cccc(Cl)c3)cc2-c2ccccc2)cc1
Activity [4]: >60%

N=C1/C(=N\Nc2ccc(Cl)cc2)C(N)=NN1c1ccc(S(N)(=O)=O)cc1
IC50 [5]: 2310 nM

CCCC1Nc2cc(C(=O)N/N=C/c3ccc(Cl)cc3Cl)cc(C)c2N1 (configuration not stated)
Activity [6]: 81.4% | Activity [7]: 90.3% | Activity [8]: 59.38% | Activity [9]: 45.5%

O=C1O[C@H]([C@@H](O)CO)C(O)=C1O
Activity [10]: 81.3%

O=C1CSC(=S)C1NC1=NC2C(C=NN2c2ccccc2)C(=O)N1c1ccccc1 (configuration not stated)
inhibition (INH) [11]: 45.6% | inhibition in vivo at 5 mg/kg [12]: 85.7%

CS(=O)(=O)c1ccc(-n2cc(/C=N/Nc3ccc(S(N)(=O)=O)cc3)c(-c3ccc(Br)cc3)n2)cc1
UI [13]: 3.77 | Activity [14]: 80%

COc1ccc(N2C(=O)/C(=C/c3cn(-c4ccc(S(C)(=O)=O)cc4)nc3-c3cccc(Cl)c3)NC2=S)cc1
Selectivity Index [15]: 9.32 | Activity [16]: 60% | UI [17]: 2.64

COc1ccc(-c2nn(-c3ccccc3)cc2CCC(=O)OCc2cn(-c3cccc(Cl)c3)nn2)cc1
Activity [18]: 70% | Activity [19]: 94% | IC50 [20]: 60.56 µg/mL (≈ 118 µM)

Nc1cc(-c2ccccc2)nn1-c1nc2c(cnn2-c2ccccc2)c(=O)n1-c1ccccc1
inhibition in vivo at 10 mg/kg [21]: 50%

C[C@]12CCC(=O)C=C1CC[C@@H]1[C@@H]2[C@@H](O)C[C@@]2(C)[C@H]1CC[C@]2(O)C(=O)CO [HYDROCORTISONE]
IC50 [2]: 3260 nM

CCCC1Nc2cc(C(=O)N/N=C/c3ccc(Cl)c(Cl)c3O)cc(C)c2N1 (configuration not stated)
Activity [6]: 79.51% | Activity [7]: 83.5% | Activity [8]: 57.62% | Activity [9]: 43.3%

O=C1NC(=O)C(=NNc2cccc(-c3nc4ccccc4[nH]3)c2)C(=O)N1
IC50 [22]: 2760 nM

CC(C)Cc1ccc(C(C)C(=O)O)cc1 (configuration not stated) [IBUPROFEN]
UI [13]: 20.25 | Activity [23]: 70.65% | UI [17]: 20.25

O=C(O)C(F)(F)C(O)c1cn(-c2ccccc2)nc1-c1ccc(Cl)cc1Cl (configuration not stated)
inhibition [24]: 38.6% | Activity [10]: 76%
